From patent publication US10350235B2, “Cationic polysaccharides for delivery of phosphoinositides to cells for therapeutic purpose” (priority 2015, dated 2019)

Legend:
HEK293 cells = assay: Autophagy flux (LC3-II western blot with and without bafilomycin A1); type: cell-based
Protocol: Autophagy Flux was assessed using western blot by comparing of the cumulative LC3-II levels in HEK293 cells with and without autophagy inhibitor—bafilomycin A1 (vacuolar H+ ATPase inhibitor, 0.1 μM). Bafilomycin A1 inhibits autophagosomes degradation by fusion with lysosome since it prevents the lysosome acidification. LC3-II is an autophagosomal membrane protein therefore it is used as autophagy marker. HEK293 cells were seeded in a 6-well plate 24 hours before treatment in DMEM growth media. The cells were incubated with or without bafilomycin A1 and 3-Methyladenine (3-MA) in EBSS for 2 hours (3-MA, 5 mM) in 37° C. and 5% CO2. 3-MA acts as an autophagy inhibitor since it inhibits III phosphatidylinositol 3-kinases (PI-3K) which produce the endogenous PI3P. At the second hour the cells were treated with Q-starch/PI3P complexes at N/P ratio of 2 and with PI3P alone as control (final PI3P concentration in each well was 0.5 μM).
Up-regulation of autophagy in HEK293 cells with the Q-starch/PI3P complexes was assessed by comparing the autophagy flux for the following conditions (FIG. 7): flux after 3 hours of serum starvation, flux after inhibition of the formation of endogenous PI3P by 3-MA (3-Methyladenine), flux after treatment with 3-MA and complexes at N/P ratio of 2 and flux after treatment with 3-MA and PI3P.

[1] = Zeta potential (Zetasizer, Smoluchowski model); type: physicochemical; settings: in mV (unit assumed)
Protocol: The hydrodynamic size of the complexes was measured by dynamic light scattering (DLS). Spectra were collected by using CGS-3, (ALV, Langen, Germany). The laser power was 20 mW at the He—Ne laser line (632.8 nm). Correlograms were calculated by ALV/LSE 5003 correlator, which were collected at 90°, during 20 s for 10 times, at 25° C. The correlograms were fitted with version of the program CONTIN (provencher, 1982). Samples of complexes were each diluted to a final volume of 1 mL in DDW. Each sample was measured three times and solutions were further diluted until results were independent of dilution rate. Complexes' size is presented as average of triplicates. Samples from DLS were transferred to U-tube cuvette (DTS 1070, Malvern) for subsequent zeta potential measurements using Zetasizer (ZN-NanoSizer, Malvern, England). Each sample was measured at automatic mode, at 25° C. and the Smoluchowski model was used to calculate the zeta potential. For each sample the zeta potential value was presented as the average value of three runs, and the average value of each N/P ratio is presented as the average of triplicates.

[2] = Cryo-TEM imaging of complex size and geometry in solution; type: physicochemical; settings: FIG. 3; complexes at N/P ratios of 2 to 3
Protocol: Complex size and geometry in solution were visualized using Cryo-TEM. TEM at cryogenic temperature (Cryo-TEM) is used for direct imaging of solutions and dispersions. Vitrified specimens are prepared on a copper grid coated with a perforated lacy carbon 300 mesh (Ted Pella Inc.). A typically 4 μl drop from the solution is applied to the grid and blotted with a filter paper to form a thin liquid film of solution. The blotted sample are immediately plunged into liquid ethane at its freezing point (−183° C.). The procedure is performed automatically in the Plunger (Lieca EM GP). The vitrified specimens are transferred into liquid nitrogen for storage. the samples are studied using a FEI Tecnai 12 G2 TEM, at 120 kV with a Gatan cryo-holder maintained at −180° C., and images are recorded on a slow scan cooled charge-coupled device CCD camera Gatan manufacturer. Images are recorded with the Digital Micrograph software package, at low dose conditions, to minimize electron beam radiation damage.

CCCCCCCC(=O)OC[C@H](COP(=O)(O)O[C@@H]1[C@H](O)[C@H](OP(=O)(O)O)[C@@H](O)[C@H](O)[C@H]1O)OC(=O)CCCCCCC [PI3P, Phosphatidylinositol 3-phosphate diC8]
autophagy flux (difference in LC3-II levels with and without bafilomycin A1) (HEK293 cells; with 3-MA 5 mM in EBSS, final PI3P 0.5 μM, complexes at N/P=2): did not affect the levels of autophagy flux | average zeta potential ([1]; non-complexed alone (FIG. 4B): 0.5 μM PI3P, 0.45 mg/L Q-starch): −14.8±3.8

CCCCCCCCCCCCCCCC(=O)OC[C@H](COP(=O)(O)OC1[C@H](O)[C@H](OP(=O)(O)O)C(OP(=O)(O)O)[C@H](OP(=O)(O)O)[C@H]1O)OC(=O)CCCCCCCCCCCCCCC (some centres unmarked) [PIP3, phosphatidylinositol (3,4,5) trisphosphate diC16]
average zeta potential ([1]; non-complexed component alone (FIG. 1)): −20.83 | shape in cryo-TEM images [2]: shape of long filaments

Cn1cnc(N)c2ncnc1-2 [3-MA, 3-Methyladenine]
autophagy flux (difference in LC3-II levels with and without bafilomycin A1) (HEK293 cells; 3-MA 5 mM alone, compared to serum starvation): decrease in the autophagy flux
